From patent publication US6683103B2, “Sulfonamides for treatment of endothelin-mediated disorders” (Texas Biotechnology Corporation, priority 1997, dated 2004) come the findings set out here.

Data set [1] can be described thus: Oral half-life and peak plasma levels in rat. Format: in vivo. Particulars: for Peak Plasma Levels: in vivo; for POt½ in Rat: oral. An excerpt:
As used herein, bioavailability refers to the rate and extent of absorption. Methods for determining bioavailability are well known to those of skill in the art. For example, bioavailability of any of the compounds described herein can be determined empirically by administration of the compound to an animal, followed by taking blood samples over time and measuring the blood concentration of the compound. In vivo half life (t½) is defined as the time it takes for the concentration of the compound in the blood to be reduced by one-half. Estimations of the area under the curve for intravenous administration can be used to estimate the area under the curve for oral administration, yielding bioavailability data. See, e.q., Milo Gibal (1991) Biopharmaceutics and Pharmacology, 4th edition (Lea and Sediger).
Table 4 lists oral half-life, bioavailability, and in vivo activity of selected exemplary compounds. The in vivo activity was measured in a pulmonary hypertension model and is a measure of the activity of the compounds at selected dosages.

Data set [2] has as its target T1, human ETA receptors (Homo sapiens, UniProt P25101).
T1 construct: endogenous in cells; host or cells: TE 671 cells (ATCC HTB 139)
T1 sequence (P25101 21-427): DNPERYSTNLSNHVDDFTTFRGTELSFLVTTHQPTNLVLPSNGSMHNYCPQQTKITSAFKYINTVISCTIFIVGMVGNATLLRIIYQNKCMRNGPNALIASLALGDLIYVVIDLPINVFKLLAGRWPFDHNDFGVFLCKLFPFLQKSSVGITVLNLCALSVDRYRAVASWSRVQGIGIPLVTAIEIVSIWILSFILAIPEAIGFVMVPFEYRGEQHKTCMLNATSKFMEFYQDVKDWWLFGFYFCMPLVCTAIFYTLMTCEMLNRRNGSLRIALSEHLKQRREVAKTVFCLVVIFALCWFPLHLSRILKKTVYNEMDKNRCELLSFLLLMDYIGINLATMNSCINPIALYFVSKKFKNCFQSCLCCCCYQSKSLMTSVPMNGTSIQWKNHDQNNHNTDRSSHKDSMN
Put plainly: Binding Test #1: inhibition of 125I-ET-1 binding to ETA receptors (TE 671 cell membranes). Particulars: for IC50: read-out: ETA. A digest of the protocol: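 Radioligand competition in triplicate: ¹²⁵I-endothelin-1 displaced by test compound (1 nM–100 μM final) from ETA-bearing TE 671 cell membranes in HEPES pH 7.4 binding buffer with NaCl, MgCl2 and bacitracin. Incubation 16–18 h at 4 °C (or at 24 °C); 80 nM ET-1 defines nonspecific binding; pellet radioactivity gives percent inhibition.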

Data set [3] addresses T2, human ETB receptor (Homo sapiens, UniProt P24530).
T2 construct: expressed in transfected cells; host or cells: COS7 cells
T2 sequence (P24530 27-442): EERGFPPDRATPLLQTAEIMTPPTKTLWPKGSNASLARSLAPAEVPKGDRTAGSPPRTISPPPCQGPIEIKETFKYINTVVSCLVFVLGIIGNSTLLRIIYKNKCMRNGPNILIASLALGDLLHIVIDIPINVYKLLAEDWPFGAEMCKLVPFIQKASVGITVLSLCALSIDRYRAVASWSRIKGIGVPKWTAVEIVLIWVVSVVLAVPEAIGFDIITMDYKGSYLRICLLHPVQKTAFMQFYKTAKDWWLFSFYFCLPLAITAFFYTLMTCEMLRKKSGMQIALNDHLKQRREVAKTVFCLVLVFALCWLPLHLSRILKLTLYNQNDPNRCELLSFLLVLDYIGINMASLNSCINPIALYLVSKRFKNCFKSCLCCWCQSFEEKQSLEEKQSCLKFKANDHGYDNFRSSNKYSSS
Put plainly: Binding Test #2: inhibition of 125I-ET-1 binding to ETB receptors (transfected COS7 cell membranes). Particulars: read-out: ETB. The gist of the method: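 Competition with 125I-ET-1 for binding to membranes from COS7 cells transfected with human ETB receptor, used at 1 μg/50 μl binding buffer. Membranes prepared in HEPES pH 7.4 with aprotinin, including a DNase/MnCl2 step at 37 °C for 30 min.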

The mark [4] stands for this setting: Table 3, † incubation at 24° C.
Setting [5] is: Table 1, † incubation at 24° C.
[6] abbreviates: Table 2, † incubation at 24° C.

Like-named read-outs stand apart in the source and are kept apart here.

Consider `Cc1cc(C)c(NC(=O)c2sccc2S(=O)(=O)Nc2onc(C)c2Cl)c(C(=O)C2CC2)c1` [3-(((4-chloro-3-methyl-5-isoxazolyl)amino)sulfonyl)-N-(2-(cyclopropylcarbonyl)-4,6-dimethylphenyl)-2-thiophenecarboxamide], for which, in data set [1], the “Peak Plasma Levels” value amounted to 53 µg/mL and the “POt½ in Rat” value came to 5.5 h. Besides, the ETA/ETB selectivity in data set [2] (Table 3) is recorded as 45000^∥. Moreover, the IC50 in data set [2] (setting [4]) worked out at 0.00036 µM.
For the molecule `Cc1cc(C)c(NC(=O)c2sccc2S(=O)(=O)Nc2onc(C)c2Cl)c(C(=O)C(C)C)c1` [3-(((4-chloro-3-methyl-5-isoxazolyl)amino)sulfonyl)-N-(2-isobutyryl-4,6-dimethylphenyl)-2-thiophenecarboxamide], in data set [1], the “Peak Plasma Levels” value came to 59 µg/mL and the “POt½ in Rat” value stood at 5.4 h. Besides, the ETA/ETB selectivity in data set [2] (Table 3) is on record as 14000^∥. Moreover, the IC50 in data set [2] (setting [4]) turned out to be 0.00111 µM.
As usually defined, the melting point is the temperature of the solid-liquid transition. With `Cc1noc(NS(=O)(=O)c2ccc(-c3ccon3)s2)c1Br` [Example 10, N-(4-Bromo-3-methyl-5-isoxazolyl)-5-(3-isoxazolyl)thiophene-2-sulfonamide], the melting point was in the range of 120 to 123 °C.
Take `Cc1cc(C)c(N(C(=O)c2sccc2S(N)(=O)=O)c2onc(C)c2Cl)c(C)c1O` [Example 52, N^2-(4-Chloro-3-methyl-5-isoxazolyl)-N-(3-hydroxy-2,4,6-trimethylphenyl)-3-sulfamoyl-2-thiophenecarboxamide]: the melting point was in the range of 75 to 78 °C.
In turn, `Cc1noc(NS(=O)(=O)c2ccsc2C(N)=O)c1Br` [N-(4-bromo-3-methyl-5-isoxazolyl)-2-(aminocarbonyl)thiophene-3-sulfonamide] had a melting point of 168 to 170 °C.
As for `Cc1cc(C)c(NC(=O)c2sccc2S(=O)(=O)Nc2onc(C)c2Cl)c(C)c1C#N` [N-(4-chloro-3-methyl-5-isoxazolyl)-2-(3-cyano-2,4,6-trimethylphenylaminocarbonyl)thiophene-3-sulfonamide], in data set [1], the “Peak Plasma Levels” value stood at 20 µg/mL and the “POt½ in Rat” value came out at 3.9 h.
In the case of `Cc1cc(C)c(NC(=O)c2sccc2S(=O)(=O)Nc2onc(C)c2Cl)c(C)c1CC#N` [N-(4-chloro-3-methyl-5-isoxazolyl)-2-(3-cyanomethyl-2,4,6-trimethylphenylaminocarbonyl)thiophene-3-sulfonamide], in data set [1], the “Peak Plasma Levels” value was found to be 40.2 µg/mL and the “POt½ in Rat” value worked out at 3.4 h. Also, the IC50 in data set [2] (setting [5]) stood at 0.0006 µM. In addition, in data set [3] (setting [5]), the IC50 is about 45 µM.
As for `Cc1cc(C)c(NC(=O)c2sccc2S(=O)(=O)Nc2onc(C)c2Cl)c(C)c1CO` [N-(4-chloro-3-methyl-5-isoxazolyl)-2-(3-hydroxymethyl-2,4,6-trimethylphenylaminocarbonyl)thiophene-3-sulfonamide], in data set [1], the “Peak Plasma Levels” value turned out to be 3 µg/mL and the “POt½ in Rat” value worked out at 1.5 h. The IC50 in data set [2] (setting [5]) worked out at 0.0004 µM. Besides, the IC50 in data set [3] (setting [5]) is about 80 µM.
On to `Cc1cc(C)c(NS(C)(=O)=O)c(C)c1NC(=O)c1sccc1S(=O)(=O)Nc1onc(C)c1Cl` [N-(4-chloro-3-methyl-5-isoxazolyl)-2-(3-methanesulfonylamino-2,4,6-trimethylphenylaminocarbonyl)thiophene-3-sulfonamide], for which, in data set [1], the “Peak Plasma Levels” value was 2.6 µg/mL and the “POt½ in Rat” value turned out to be 5.9 h.
With `Cc1onc(NS(=O)(=O)c2c(Cc3ccc4c(c3)OCO4)sc3ccccc23)c1Cl` [N-(4-chloro-5-methyl-3-isoxazolyl)-2-[3,4-(methylenedioxy)benzyl]benzo[b]thiophene-3-sulfonamide], the IC50 was 0.0055 µM in data set [2] (setting [5]) and 0.364 µM in data set [3] (setting [5]).
Turning to `Cc1onc(NS(=O)(=O)c2ccc(-c3ccccc3)cc2)c1Cl` [N-(4-chloro-5-methyl-3-isoxazolyl)-4-biphenylsulfonamide], the IC50 in data set [2] (Table 2, incubation at 4° C.) stood at 3.7 µM; in data set [2] (setting [6]), 18.6 µM; in data set [3] (Table 2, incubation at 4° C.), 0.23 ± 0.01 µM; in data set [3] (setting [6]) it was 1.29 µM.
Turning to “N-2-[3,4-(methylenedioxy)phenylacetyl]thiophene-3-sulfonamide”, the IC50 came to 1.8 µM in data set [2] (setting [5]) and 32.5 µM in data set [3] (setting [5]).
For “N-(3,4-dimethyl-5-isoxazolyl)-2-(4-tolylacetylphenyl)thiophene-3-sulfonamide”, the IC50 was 0.0027 µM in data set [2] (setting [5]) and 29.2 µM in data set [3] (setting [5]).
In the case of “N-(4-bromo-3-methyl-5-isoxazolyl)-1-[3,4-(methylenedioxy)benzyl]indole-2-sulfonamide”, the IC50 in data set [2] (setting [5]) stood at 5.29 µM; in data set [3] (setting [5]), 18.6 µM.
On to “N-(4-bromo-3-methyl-5-isoxazolyl)-2′-methoxyphenyl-4-biphenylsulfonamide”, for which the IC50 in data set [2] (Table 2, incubation at 4° C.) amounted to 3.3 ± 3.5 µM; in data set [3] (Table 2, incubation at 4° C.), 0.41 ± 0.14 µM.
For the molecule “N-(4-bromo-3-methyl-5-isoxazolyl)-3′,4′-methylenedioxyphenyl-4-biphenylsulfonamide”, the IC50 was 38.2 ± 4.95 µM in data set [2] (setting [6]) and 3 ± 0.78 µM in data set [3] (setting [6]).
For the molecule “N-(4-bromo-3-methyl-5-isoxazolyl)-3′-methoxyphenyl-4-biphenylsulfonamide”, the IC50 was 4.97 ± 3.4 µM in data set [2] (Table 2, incubation at 4° C.); 163 ± 7.14 µM in data set [2] (setting [6]); 0.66 ± 0.25 µM in data set [3] (Table 2, incubation at 4° C.); 2.08 ± 0.23 µM in data set [3] (setting [6]).
Turning to “N-(4-bromo-3-methyl-5-isoxazolyl)-4′-methoxyphenyl-4-biphenylsulfonamide”, the IC50 in data set [2] (Table 2, incubation at 4° C.) came out at 14.7 ± 5.6 µM; in data set [2] (setting [6]) it was 122 ± 2.12 µM; in data set [3] (Table 2, incubation at 4° C.), 1.15 ± 0.44 µM.
As for “N-(4-bromo-3-methyl-5-isoxazolyl)-4′-methylphenyl-4-biphenylsulfonamide”, the IC50 in data set [2] (Table 2, incubation at 4° C.) was 14.5 ± 9.6 µM; in data set [2] (setting [6]), 22.2 ± 3.77 µM; in data set [3] (Table 2, incubation at 4° C.), 0.046 ± 0.044 µM; in data set [3] (setting [6]), 0.168 ± 0.0032 µM.
The like results for “N-(4-bromo-3-methyl-5-isoxazolyl)-4′-trifluorophenyl-4-biphenylsulfonamide” were, in that order, 5.4 ± 0.3 µM, 25.9 ± 13.7 µM, 0.083 ± 0.02 µM and 0.71 ± 0.43 µM.
Regarding “N-(4-bromo-5-methyl-3-isoxazolyl)-5-(4-methylphenyl)thiophene-2-sulfonamide”, the IC50 in data set [2] (Table 1, incubation at 4° C.) was 7.1 µM; in data set [2] (setting [5]), 15.8 µM; in data set [3] (Table 1, incubation at 4° C.) it was 0.359 µM; in data set [3] (setting [5]), 0.25 µM.
Take “N-(4-chloro-3-methyl-5-isoxazolyl)-2-[2-hyroxyproyl-4,5-(methylenedioxy)phenylaminocarbonyl]thiophene-3-sulfonamide”: the IC50 in data set [2] (setting [5]) amounted to 0.0073 µM; in data set [3] (setting [5]), 8.3 µM.
Regarding “N-(4-chloro-3-methyl-5-isoxazolyl)-2-[2-methyl-4,5-(methylenedioxy)phenylhydroxyimino]thiophene-3-sulfonamide”, the IC50 was determined as 0.794 µM in data set [2] (setting [5]) and 6.49 µM in data set [3] (setting [5]).
As to “N-(4-chloro-3-methyl-5-isoxazolyl)-2-[β-(dimethylamino)-3,4-(methylenedioxy)phenethyl]thiophene-3-sulfonamide”, the IC50 in data set [2] (setting [5]) was 20.9 µM; in data set [3] (setting [5]), about 100 µM.
With “N-(4-chloro-3-methyl-5-isoxazolyl)-2-[β-acetoxy-2-methyl-4,5-(methylenedioxy)styryl]thiophene-3-sulfonamide”, the IC50 amounted to 0.00544 µM in data set [2] (Table 1, incubation at 4° C.) and 3.74 µM in data set [3] (setting [5]).
Consider “N-(4-chloro-3-methyl-5-isoxazolyl)-2-phenylbenzo[b]thiophene sulfonamide”, for which the IC50 in data set [2] (setting [5]) was 0.932 µM; in data set [3] (setting [5]), 46.8 µM.
